Test results from ChEMBL document CHEMBL1201862, “PubChem BioAssay data set” (2004).
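A five-concentration, 48-hour dose response in 96-well plates underlies each endpoint, interpolated linearly between surrounding concentrations. GI50 is the concentration that inhibits growth by half.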 Calls of active or inactive are those of the source. Rule as the data show it: active = GI50 up to about 1.1 µM and inactive = higher.

Key:
Test in all cases: inhibition of tumour cell growth, NCI panel, 48 h
786-0 = test system: 786-0
A549 = test system: A549
ACHN = test system: ACHN
BT-549 = test system: BT-549
CCRF-CEM = test system: CCRF-CEM
COLO 205 = test system: COLO 205
DU-145 = test system: DU-145
EKVX = test system: EKVX
HCT-116 = test system: HCT-116
HCT-15 = test system: HCT-15
HL-60 = test system: HL-60
HOP-62 = test system: HOP-62
HOP-92 = test system: HOP-92
HT-29 = test system: HT-29
Hs-578T = test system: Hs-578T
IGROV-1 = test system: IGROV-1
K562 = test system: K562
KM12 = test system: KM12
LOX IMVI = test system: LOX IMVI
M14 = test system: M14
MCF7 = test system: MCF7
MDA-MB-231 = test system: MDA-MB-231
MDA-MB-435 = test system: MDA-MB-435
MDA-N = test system: MDA-N
MOLT-4 = test system: MOLT-4
Malme-3M = test system: Malme-3M
NCI-H226 = test system: NCI-H226
NCI-H23 = test system: NCI-H23
NCI-H460 = test system: NCI-H460
NCI/ADR-RES = test system: NCI/ADR-RES
OVCAR-3 = test system: OVCAR-3
OVCAR-4 = test system: OVCAR-4
OVCAR-5 = test system: OVCAR-5
OVCAR-8 = test system: OVCAR-8
PC-3 = test system: PC-3
RPMI-8226 = test system: RPMI-8226
RXF 393 = test system: RXF 393
SF-268 = test system: SF-268
SF-295 = test system: SF-295
SF-539 = test system: SF-539
SK-MEL-28 = test system: SK-MEL-28
SK-MEL-2 = test system: SK-MEL-2
SK-OV-3 = test system: SK-OV-3
SN12C = test system: SN12C
SNB-19 = test system: SNB-19
SNB-75 = test system: SNB-75
SW-620 = test system: SW-620
T47D = test system: T47D
TK-10 = test system: TK-10
U-251 = test system: U-251
UACC-257 = test system: UACC-257
UACC-62 = test system: UACC-62
UO-31 = test system: UO-31
A498 = test system: A498
CAKI-1 = test system: CAKI-1
HCC 2998 = test system: HCC 2998
NCI-H522 = test system: NCI-H522
SK-MEL-5 = test system: SK-MEL-5
SR = test system: SR

O=S(=O)(/N=S(/Nc1ccccc1)C(Cl)Cl)c1ccccc1 (stereo unspecified)
GI50 (786-0): > 100 µM (inactive)
GI50 (A549): > 100 µM (inactive)
GI50 (ACHN): > 100 µM (inactive)
GI50 (BT-549): > 100 µM (inactive)
GI50 (CCRF-CEM): > 100 µM (inactive)
GI50 (COLO 205): > 100 µM (inactive)
GI50 (DU-145): > 100 µM (inactive)
GI50 (EKVX): > 100 µM (inactive)
GI50 (HCT-116): > 100 µM (inactive)
GI50 (HCT-15): > 100 µM
GI50 (HL-60): > 100 µM (inactive)
GI50 (HOP-62): > 100 µM (inactive)
GI50 (HOP-92): > 100 µM (inactive)
GI50 (HT-29): > 100 µM (inactive)
GI50 (Hs-578T): > 100 µM (inactive)
GI50 (IGROV-1): > 100 µM (inactive)
GI50 (K562): > 100 µM (inactive)
GI50 (KM12): > 100 µM (inactive)
GI50 (LOX IMVI): > 100 µM (inactive)
GI50 (M14): > 100 µM (inactive)
GI50 (MCF7): > 100 µM (inactive)
GI50 (MDA-MB-231): > 100 µM (inactive)
GI50 (MDA-MB-435): > 100 µM (inactive)
GI50 (MDA-N): > 100 µM (inactive)
GI50 (MOLT-4): > 100 µM (inactive)
GI50 (Malme-3M): > 100 µM (inactive)
GI50 (NCI-H226): > 100 µM (inactive)
GI50 (NCI-H23): > 100 µM (inactive)
GI50 (NCI-H460): > 100 µM (inactive)
GI50 (NCI/ADR-RES): > 100 µM (inactive)
GI50 (OVCAR-3): > 100 µM (inactive)
GI50 (OVCAR-4): > 100 µM (inactive)
GI50 (OVCAR-5): > 100 µM (inactive)
GI50 (OVCAR-8): > 100 µM (inactive)
GI50 (PC-3): > 100 µM (inactive)
GI50 (RPMI-8226): > 100 µM (inactive)
GI50 (RXF 393): > 100 µM (inactive)
GI50 (SF-268): > 100 µM (inactive)
GI50 (SF-295): > 100 µM (inactive)
GI50 (SF-539): > 100 µM (inactive)
GI50 (SK-MEL-28): > 100 µM (inactive)
GI50 (SK-MEL-2): > 100 µM (inactive)
GI50 (SK-OV-3): > 100 µM (inactive)
GI50 (SN12C): > 100 µM (inactive)
GI50 (SNB-19): > 100 µM (inactive)
GI50 (SNB-75): > 100 µM (inactive)
GI50 (SW-620): > 100 µM (inactive)
GI50 (T47D): > 100 µM (inactive)
GI50 (TK-10): > 100 µM (inactive)
GI50 (U-251): > 100 µM (inactive)
GI50 (UACC-257): > 100 µM (inactive)
GI50 (UACC-62): > 100 µM (inactive)
GI50 (UO-31): > 100 µM (inactive)

NC(=O)C1CCCN1C(=O)N(CCCl)N=O (stereo unspecified)
GI50 (786-0): > 100 µM (inactive)
GI50 (A498): > 100 µM (inactive)
GI50 (A549): > 100 µM (inactive)
GI50 (ACHN): > 100 µM (inactive)
GI50 (BT-549): > 100 µM (inactive)
GI50 (CAKI-1): > 100 µM (inactive)
GI50 (CCRF-CEM): > 100 µM (inactive)
GI50 (COLO 205): > 100 µM (inactive)
GI50 (DU-145): > 100 µM (inactive)
GI50 (EKVX): > 100 µM (inactive)
GI50 (HCC 2998): > 100 µM (inactive)
GI50 (HCT-116): > 100 µM (inactive)
GI50 (HCT-15): > 100 µM
GI50 (HL-60): > 100 µM (inactive)
GI50 (HOP-62): > 100 µM (inactive)
GI50 (HOP-92): > 100 µM (inactive)
GI50 (HT-29): > 100 µM (inactive)
GI50 (Hs-578T): > 100 µM (inactive)
GI50 (IGROV-1): > 100 µM (inactive)
GI50 (K562): > 100 µM (inactive)
GI50 (KM12): > 100 µM (inactive)
GI50 (LOX IMVI): > 100 µM (inactive)
GI50 (M14): > 100 µM (inactive)
GI50 (MCF7): > 100 µM (inactive)
GI50 (MDA-MB-231): > 100 µM (inactive)
GI50 (MDA-MB-435): > 100 µM (inactive)
GI50 (MDA-N): > 100 µM (inactive)
GI50 (MOLT-4): > 100 µM (inactive)
GI50 (Malme-3M): > 100 µM (inactive)
GI50 (NCI-H226): > 100 µM (inactive)
GI50 (NCI-H23): > 100 µM (inactive)
GI50 (NCI-H460): > 100 µM (inactive)
GI50 (NCI-H522): > 100 µM (inactive)
GI50 (NCI/ADR-RES): > 100 µM (inactive)
GI50 (OVCAR-3): > 100 µM (inactive)
GI50 (OVCAR-4): > 100 µM (inactive)
GI50 (OVCAR-5): 54.5 µM (inactive)
GI50 (OVCAR-8): > 100 µM (inactive)
GI50 (PC-3): > 100 µM (inactive)
GI50 (RPMI-8226): > 100 µM (inactive)
GI50 (SF-268): 74.1 µM (inactive)
GI50 (SF-295): > 100 µM (inactive)
GI50 (SF-539): > 100 µM (inactive)
GI50 (SK-MEL-28): > 100 µM (inactive)
GI50 (SK-MEL-2): > 100 µM (inactive)
GI50 (SK-MEL-5): > 100 µM (inactive)
GI50 (SK-OV-3): > 100 µM (inactive)
GI50 (SN12C): > 100 µM (inactive)
GI50 (SNB-19): > 100 µM (inactive)
GI50 (SNB-75): 14.9 µM (inactive)
GI50 (SR): > 100 µM (inactive)
GI50 (SW-620): > 100 µM (inactive)
GI50 (T47D): > 100 µM (inactive)
GI50 (TK-10): > 100 µM (inactive)
GI50 (U-251): > 100 µM (inactive)
GI50 (UACC-257): > 100 µM (inactive)
GI50 (UACC-62): > 100 µM (inactive)
GI50 (UO-31): > 100 µM (inactive)
